{"source": "paper PMC5036131", "about": "“Fragment-based discovery of a new family of non-peptidic small-molecule cyclophilin inhibitors with potent antiviral activities” (Nature Communications, 2016)", "key": {"[1]": {"biological_target": "CYP2C19 (Homo sapiens, UniProt P33261)", "sequence (P33261 whole entry)": "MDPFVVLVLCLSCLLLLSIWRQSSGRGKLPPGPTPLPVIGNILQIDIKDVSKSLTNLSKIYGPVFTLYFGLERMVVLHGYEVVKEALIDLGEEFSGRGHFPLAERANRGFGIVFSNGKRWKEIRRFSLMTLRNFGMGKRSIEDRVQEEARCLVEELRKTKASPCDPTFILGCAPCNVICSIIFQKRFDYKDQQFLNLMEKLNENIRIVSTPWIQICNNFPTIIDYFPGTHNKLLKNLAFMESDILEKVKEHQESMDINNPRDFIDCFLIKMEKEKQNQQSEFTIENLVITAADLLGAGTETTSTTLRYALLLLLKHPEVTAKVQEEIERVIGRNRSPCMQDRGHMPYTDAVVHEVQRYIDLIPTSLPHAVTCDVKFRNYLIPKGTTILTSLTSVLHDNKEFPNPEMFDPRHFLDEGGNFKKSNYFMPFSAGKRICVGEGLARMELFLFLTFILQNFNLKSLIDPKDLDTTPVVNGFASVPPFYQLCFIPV", "test": "Metabolism by recombinant human cytochrome P450, CYP2C19", "type": "in vitro ADME", "details": "recombinant enzyme", "procedure": "(§1) […] of compound was incubated with individual bacterially expressed recombinant human cytochromes P450 co-expressed with human NADPH cytochrome P450 reductase. […] Enzyme-selective positive control substrates were tested in parallel."}, "[2]": {"biological_target": "T1, CYP1A2 (Homo sapiens, UniProt P05177)", "T1 sequence (P05177 1-516)": "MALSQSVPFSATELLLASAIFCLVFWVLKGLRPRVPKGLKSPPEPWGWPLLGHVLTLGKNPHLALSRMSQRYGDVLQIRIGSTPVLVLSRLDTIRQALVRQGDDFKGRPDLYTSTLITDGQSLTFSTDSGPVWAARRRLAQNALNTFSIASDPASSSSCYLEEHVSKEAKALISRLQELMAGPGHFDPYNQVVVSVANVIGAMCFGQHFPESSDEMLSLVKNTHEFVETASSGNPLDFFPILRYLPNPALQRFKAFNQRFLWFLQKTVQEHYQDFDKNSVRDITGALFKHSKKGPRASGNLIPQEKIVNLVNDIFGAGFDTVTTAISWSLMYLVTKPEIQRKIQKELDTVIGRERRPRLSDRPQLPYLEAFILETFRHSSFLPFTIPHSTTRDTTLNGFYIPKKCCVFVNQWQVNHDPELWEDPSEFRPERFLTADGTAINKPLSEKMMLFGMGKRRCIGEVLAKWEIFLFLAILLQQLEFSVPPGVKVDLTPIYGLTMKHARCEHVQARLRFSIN", "test": "Cytochrome P450 enzyme inhibition assay, CYP1A2", "type": "in vitro ADME", "design": "incubated with human hepatic microsomal fractions and NADPH; from tissue; host or cells: human hepatic microsomal fractions", "details": "human hepatic microsomal fractions, up to 25 μM", "procedure": "(§2) Up to 25 μM of compounds 29 and 30 was incubated with human hepatic microsomal fractions and NADPH in the presence of individual probe substrates. All assays were designed so that conditions were linear with respect to time and protein concentration. Substrates were present at concentrations equal to or lower than their respective Km values. Enzyme selective products were determined by fluorometry (ethoxyresorufin O-deethylase) or by specific LC-MS/MS assays. Relative enzyme activities were determined by comparison with those assayed with DMSO vehicle instead of inhibitor. IC50 values were calculated by nonlinear curve fitting using a sigmoidal model. Positive control inhibitors for each enzyme were tested in parallel."}, "[3]": {"biological_target": "T2, CYP2C8 (Homo sapiens, UniProt P10632)", "T2 sequence (P10632 1-490)": "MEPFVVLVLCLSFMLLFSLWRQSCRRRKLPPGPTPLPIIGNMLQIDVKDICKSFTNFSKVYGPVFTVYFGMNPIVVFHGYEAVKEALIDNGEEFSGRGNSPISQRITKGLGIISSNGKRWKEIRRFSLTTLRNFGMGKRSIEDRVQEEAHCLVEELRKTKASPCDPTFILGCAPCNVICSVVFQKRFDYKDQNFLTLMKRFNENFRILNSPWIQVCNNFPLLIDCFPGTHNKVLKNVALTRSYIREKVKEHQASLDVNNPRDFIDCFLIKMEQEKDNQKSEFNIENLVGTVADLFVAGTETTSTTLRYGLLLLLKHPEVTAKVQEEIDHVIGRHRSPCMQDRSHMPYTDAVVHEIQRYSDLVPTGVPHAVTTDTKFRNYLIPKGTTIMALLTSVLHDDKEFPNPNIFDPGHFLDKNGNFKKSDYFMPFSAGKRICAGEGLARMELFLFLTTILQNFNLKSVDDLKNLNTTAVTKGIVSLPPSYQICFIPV", "test": "Cytochrome P450 enzyme inhibition assay, CYP2C8", "type": "in vitro ADME", "design": "incubated with human hepatic microsomal fractions and NADPH; from tissue; host or cells: human hepatic microsomal fractions", "details": "human hepatic microsomal fractions, up to 25 μM", "procedure": "as §2"}, "[4]": {"test": "LogD determination by reverse-phase HPLC", "type": "physicochemical", "details": "octanol/water, pH 7.4", "procedure": "The octanol/water partitioning (LogD) values of compounds were determined from their retention times during reverse-phase HPLC at pH 7.4 with diode array ultraviolet/visible detection. The LogD values were obtained by interpolation within a standard curve (range LogD: 0.3–5.7) generated with seven standards, with LogD values previously determined using the shake-flask method."}, "[5]": {"biological_target": "T3, CYP2B6 (Homo sapiens, UniProt P20813)", "T3 sequence (P20813 1-491)": "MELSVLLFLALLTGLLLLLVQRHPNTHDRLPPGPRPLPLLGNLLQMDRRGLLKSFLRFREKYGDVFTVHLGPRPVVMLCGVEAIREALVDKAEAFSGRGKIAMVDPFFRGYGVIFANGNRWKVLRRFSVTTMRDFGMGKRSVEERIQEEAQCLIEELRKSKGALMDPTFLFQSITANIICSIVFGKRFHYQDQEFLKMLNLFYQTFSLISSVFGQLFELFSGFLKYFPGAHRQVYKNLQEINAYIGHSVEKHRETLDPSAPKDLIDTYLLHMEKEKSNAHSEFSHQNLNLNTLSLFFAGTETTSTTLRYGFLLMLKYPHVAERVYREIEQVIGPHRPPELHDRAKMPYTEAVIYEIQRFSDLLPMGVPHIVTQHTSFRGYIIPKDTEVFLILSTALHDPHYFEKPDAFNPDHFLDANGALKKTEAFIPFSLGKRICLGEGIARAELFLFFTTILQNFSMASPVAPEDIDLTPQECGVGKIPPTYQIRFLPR", "test": "Metabolism by recombinant human cytochrome P450, CYP2B6", "type": "in vitro ADME", "details": "recombinant enzyme", "procedure": "as §1"}, "[6]": {"system": "HCoV-229E", "test": "Anti-human coronavirus 229E activity in MRC5 cells", "type": "cell-based", "details": "72 h, viral cytopathic effect"}}}
{"smiles": "CSCCC(NC(=O)NCc1ccc(N)cc1)C(=O)N1CCCC1c1ccccc1SC.O=C(O)C(F)(F)F", "note": "(stereo not shown) [Compound 30]", "values": [{"measurement": "Rate of metabolism by human cytochrome P450 CYP2C19", "setting": "[1]", "value": 6.21, "unit": "pmol/pmol P450/min"}, {"measurement": "Rate of metabolism by human cytochrome P450 CYP2C19", "setting": "[1]; listed as compound 30", "value": "metabolized at the highest rate"}, {"measurement": "IC50", "setting": "[2]", "value": "> 25", "unit": "µM"}, {"measurement": "Inhibition of cytochrome P450 activity, IC50 CYP1A2", "setting": "[2]", "value": "Neither compound 29 nor compound 30 significantly inhibited"}, {"measurement": "IC50", "setting": "[3]", "value": 9.4, "unit": "µM"}, {"measurement": "Inhibition of cytochrome P450 activity, IC50 CYP2C8", "setting": "[3]", "value": "moderate inhibitors"}, {"measurement": "LogD", "setting": "[4]", "value": 2.6}, {"measurement": "Rate of metabolism by human cytochrome P450 CYP2B6", "setting": "[5]", "value": "< 0.12", "unit": "pmol/pmol P450/min"}, {"measurement": "Rate of metabolism by human cytochrome P450 CYP2B6", "setting": "[5]; listed as compound 30", "value": "Neither compound 29 nor compound 30 was metabolized"}, {"measurement": "EC50", "setting": "[6]", "value": "7.2 ± 1.8", "unit": "µM"}]}
